These results are taken from ChEMBL document CHEMBL5465560, “Selectivity Literature for EUbOPEN Chemogenomic Library” (2024).

The target in test [1] is T1, Alpha-2C adrenergic receptor (Homo sapiens) (UniProt P18825).
T1 sequence (whole entry): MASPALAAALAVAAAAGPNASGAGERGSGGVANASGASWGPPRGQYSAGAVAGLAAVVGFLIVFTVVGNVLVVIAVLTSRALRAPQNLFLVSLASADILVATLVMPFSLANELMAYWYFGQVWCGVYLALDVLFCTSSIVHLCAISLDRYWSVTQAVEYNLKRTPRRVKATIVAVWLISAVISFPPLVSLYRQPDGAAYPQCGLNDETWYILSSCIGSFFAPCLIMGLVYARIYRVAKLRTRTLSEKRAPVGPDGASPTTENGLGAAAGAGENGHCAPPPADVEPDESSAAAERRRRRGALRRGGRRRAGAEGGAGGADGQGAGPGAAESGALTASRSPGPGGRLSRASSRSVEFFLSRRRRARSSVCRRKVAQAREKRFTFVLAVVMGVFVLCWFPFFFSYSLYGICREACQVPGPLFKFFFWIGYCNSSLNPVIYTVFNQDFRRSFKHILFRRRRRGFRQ
Put plainly: Selectivity interaction (Panel of kinases, GPCRs, ion channels and transporters (enzymatic assay)) EUB0000266bCl ADRA2C.

Test [2] addresses T2, Serine/threonine-protein kinase Nek11 (Homo sapiens) (UniProt Q8NG66).
T2 sequence (whole entry): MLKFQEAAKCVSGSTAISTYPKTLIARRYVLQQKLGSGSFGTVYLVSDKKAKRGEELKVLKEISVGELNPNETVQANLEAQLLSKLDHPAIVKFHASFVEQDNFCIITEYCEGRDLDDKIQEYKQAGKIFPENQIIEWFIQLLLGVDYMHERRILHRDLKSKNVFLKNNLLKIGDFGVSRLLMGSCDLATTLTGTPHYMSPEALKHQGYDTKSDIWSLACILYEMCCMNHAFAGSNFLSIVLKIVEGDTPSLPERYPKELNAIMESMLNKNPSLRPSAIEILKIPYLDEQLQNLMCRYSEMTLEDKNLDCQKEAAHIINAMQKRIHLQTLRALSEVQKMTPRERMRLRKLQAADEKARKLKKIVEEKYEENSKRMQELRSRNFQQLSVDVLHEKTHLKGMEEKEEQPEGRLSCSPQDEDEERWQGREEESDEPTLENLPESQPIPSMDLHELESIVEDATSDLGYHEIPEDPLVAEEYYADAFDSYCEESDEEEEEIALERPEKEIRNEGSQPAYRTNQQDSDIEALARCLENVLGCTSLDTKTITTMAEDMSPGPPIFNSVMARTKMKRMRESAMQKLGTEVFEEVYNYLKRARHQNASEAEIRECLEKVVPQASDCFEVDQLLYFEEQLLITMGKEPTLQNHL
Put plainly: Selectivity interaction (KinomeScan (DiscoverX)) EUB0001049a NEK11. The settings on record: at 1 µM.

Test [3] has as its target Casein kinase II subunit alpha' (Homo sapiens) (UniProt P19784). Put plainly: Selectivity interaction (KinomeScan (DiscoverX)) EUB0000655a CSNK2A2. The conditions noted are these: at 10 µM.
In test [4] the target is Dual specificity protein kinase CLK4 (Homo sapiens, UniProt Q9HAZ1). Put plainly: Selectivity interaction (Enzymatic assay) EUB0001550a CLK4.
Sequence of Dual specificity protein kinase CLK4 (Q9HAZ1 whole entry): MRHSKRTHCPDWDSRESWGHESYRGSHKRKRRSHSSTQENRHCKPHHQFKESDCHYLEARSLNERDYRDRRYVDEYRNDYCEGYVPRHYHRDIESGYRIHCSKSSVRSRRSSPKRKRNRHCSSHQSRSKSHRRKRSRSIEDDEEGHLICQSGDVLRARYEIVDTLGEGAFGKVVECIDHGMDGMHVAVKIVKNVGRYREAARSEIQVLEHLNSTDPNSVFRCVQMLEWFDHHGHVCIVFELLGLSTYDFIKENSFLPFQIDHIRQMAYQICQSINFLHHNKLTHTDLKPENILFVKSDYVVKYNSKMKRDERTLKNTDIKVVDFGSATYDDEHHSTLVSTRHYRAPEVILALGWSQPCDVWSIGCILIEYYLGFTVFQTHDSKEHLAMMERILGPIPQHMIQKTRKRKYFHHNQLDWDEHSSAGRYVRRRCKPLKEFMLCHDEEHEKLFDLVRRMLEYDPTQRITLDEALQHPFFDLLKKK
Test [5] has as its target T3, 5-hydroxytryptamine receptor 1A (Homo sapiens) (UniProt P08908).
T3 sequence (whole entry): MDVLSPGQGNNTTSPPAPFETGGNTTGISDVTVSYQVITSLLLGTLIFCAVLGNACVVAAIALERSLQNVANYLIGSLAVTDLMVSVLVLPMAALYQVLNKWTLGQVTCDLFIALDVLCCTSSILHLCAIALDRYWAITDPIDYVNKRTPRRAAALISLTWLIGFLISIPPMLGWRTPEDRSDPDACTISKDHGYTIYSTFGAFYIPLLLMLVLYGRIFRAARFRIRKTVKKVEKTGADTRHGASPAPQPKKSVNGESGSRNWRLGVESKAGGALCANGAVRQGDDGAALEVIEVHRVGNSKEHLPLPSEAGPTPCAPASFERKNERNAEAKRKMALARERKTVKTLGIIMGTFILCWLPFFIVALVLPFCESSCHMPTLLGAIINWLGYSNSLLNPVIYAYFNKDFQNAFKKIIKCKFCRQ
Nature of the test: Selectivity interaction (Eurofins CEREP Diversity Profile (receptors and ion channels)) EUB0000279b HTR1A. The settings on record: at 10 µM.

Test [6] deals with Ribosomal protein S6 kinase alpha-3 (Homo sapiens, UniProt P51812). Nature of the test: Selectivity interaction (KinomeScan (DiscoverX)) EUB0000666a RPS6KA3. The settings on record: at 10 µM.
Sequence of Ribosomal protein S6 kinase alpha-3 (P51812 whole entry): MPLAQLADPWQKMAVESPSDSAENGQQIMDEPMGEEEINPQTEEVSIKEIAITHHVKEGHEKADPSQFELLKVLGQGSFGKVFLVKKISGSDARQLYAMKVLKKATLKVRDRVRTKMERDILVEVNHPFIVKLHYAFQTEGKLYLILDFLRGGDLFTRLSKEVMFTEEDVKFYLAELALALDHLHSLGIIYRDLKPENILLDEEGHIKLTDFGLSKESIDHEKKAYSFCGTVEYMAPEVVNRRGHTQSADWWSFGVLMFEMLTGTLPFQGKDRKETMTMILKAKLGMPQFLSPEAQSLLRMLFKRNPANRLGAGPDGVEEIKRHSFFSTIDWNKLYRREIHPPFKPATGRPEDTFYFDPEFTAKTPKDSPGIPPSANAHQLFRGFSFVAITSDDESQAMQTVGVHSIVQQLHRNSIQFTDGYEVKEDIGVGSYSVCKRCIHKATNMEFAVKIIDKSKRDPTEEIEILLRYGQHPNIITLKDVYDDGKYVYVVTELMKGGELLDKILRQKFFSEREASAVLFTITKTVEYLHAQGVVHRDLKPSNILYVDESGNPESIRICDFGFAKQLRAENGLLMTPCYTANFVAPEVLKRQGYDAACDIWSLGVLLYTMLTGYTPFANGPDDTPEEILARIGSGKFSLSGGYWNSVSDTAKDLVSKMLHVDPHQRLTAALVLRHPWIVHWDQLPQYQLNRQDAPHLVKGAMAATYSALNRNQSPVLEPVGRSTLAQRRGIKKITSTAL
Test [7] deals with Fibroblast growth factor receptor 1 (Homo sapiens, UniProt P11362). Put plainly: Selectivity interaction (Kinase panel (Z-LYTE Assay)) EUB0001632a FGFR1. The conditions noted are these: at 10 µM.
Sequence of Fibroblast growth factor receptor 1 (P11362 22-822 limits assumed): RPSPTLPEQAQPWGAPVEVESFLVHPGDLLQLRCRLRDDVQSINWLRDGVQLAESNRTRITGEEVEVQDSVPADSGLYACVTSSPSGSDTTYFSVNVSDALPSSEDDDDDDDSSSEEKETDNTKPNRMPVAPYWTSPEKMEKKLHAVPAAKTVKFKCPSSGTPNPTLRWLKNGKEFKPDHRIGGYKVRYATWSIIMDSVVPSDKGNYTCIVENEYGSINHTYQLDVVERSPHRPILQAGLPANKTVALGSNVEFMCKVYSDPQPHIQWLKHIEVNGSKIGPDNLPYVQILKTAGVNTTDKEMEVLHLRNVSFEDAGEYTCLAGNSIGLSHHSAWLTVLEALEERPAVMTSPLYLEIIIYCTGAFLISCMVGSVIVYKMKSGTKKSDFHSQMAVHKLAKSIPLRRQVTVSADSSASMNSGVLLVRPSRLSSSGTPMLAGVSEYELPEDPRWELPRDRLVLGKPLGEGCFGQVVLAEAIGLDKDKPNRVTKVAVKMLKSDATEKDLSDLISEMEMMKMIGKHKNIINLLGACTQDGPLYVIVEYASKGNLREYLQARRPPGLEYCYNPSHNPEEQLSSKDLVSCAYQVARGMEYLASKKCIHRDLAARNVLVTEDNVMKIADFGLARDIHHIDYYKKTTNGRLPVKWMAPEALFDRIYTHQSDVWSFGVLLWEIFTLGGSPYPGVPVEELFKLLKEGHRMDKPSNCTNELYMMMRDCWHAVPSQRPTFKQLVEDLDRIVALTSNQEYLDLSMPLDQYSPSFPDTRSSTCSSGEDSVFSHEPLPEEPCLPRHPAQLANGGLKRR
Test [8] addresses T4, Serine/threonine-protein kinase STK11 (Homo sapiens) (UniProt Q15831).
T4 sequence (whole entry): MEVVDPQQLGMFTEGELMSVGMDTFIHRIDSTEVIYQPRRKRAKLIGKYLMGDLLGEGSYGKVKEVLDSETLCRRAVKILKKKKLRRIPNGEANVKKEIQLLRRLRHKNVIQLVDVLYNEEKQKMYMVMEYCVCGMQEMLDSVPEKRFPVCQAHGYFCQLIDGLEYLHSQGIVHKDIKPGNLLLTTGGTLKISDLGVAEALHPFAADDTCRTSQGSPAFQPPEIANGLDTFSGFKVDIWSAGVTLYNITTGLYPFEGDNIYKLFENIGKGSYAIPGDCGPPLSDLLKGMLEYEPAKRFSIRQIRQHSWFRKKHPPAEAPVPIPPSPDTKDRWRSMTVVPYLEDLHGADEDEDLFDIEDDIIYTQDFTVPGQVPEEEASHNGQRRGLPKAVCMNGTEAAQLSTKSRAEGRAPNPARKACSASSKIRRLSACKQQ
Put plainly: Selectivity interaction (KinomeScan (DiscoverX)) EUB0000229b STK11. The settings on record: at 10 µM.

For test [9], the target named is Fibroblast growth factor receptor 2 (Homo sapiens) (UniProt P21802). Put plainly: Selectivity interaction (Kinase panel (DSF assay)) EUB0001559a FGFR2.
Sequence of Fibroblast growth factor receptor 2 (Homo sapiens) (P21802 22-821 limits assumed): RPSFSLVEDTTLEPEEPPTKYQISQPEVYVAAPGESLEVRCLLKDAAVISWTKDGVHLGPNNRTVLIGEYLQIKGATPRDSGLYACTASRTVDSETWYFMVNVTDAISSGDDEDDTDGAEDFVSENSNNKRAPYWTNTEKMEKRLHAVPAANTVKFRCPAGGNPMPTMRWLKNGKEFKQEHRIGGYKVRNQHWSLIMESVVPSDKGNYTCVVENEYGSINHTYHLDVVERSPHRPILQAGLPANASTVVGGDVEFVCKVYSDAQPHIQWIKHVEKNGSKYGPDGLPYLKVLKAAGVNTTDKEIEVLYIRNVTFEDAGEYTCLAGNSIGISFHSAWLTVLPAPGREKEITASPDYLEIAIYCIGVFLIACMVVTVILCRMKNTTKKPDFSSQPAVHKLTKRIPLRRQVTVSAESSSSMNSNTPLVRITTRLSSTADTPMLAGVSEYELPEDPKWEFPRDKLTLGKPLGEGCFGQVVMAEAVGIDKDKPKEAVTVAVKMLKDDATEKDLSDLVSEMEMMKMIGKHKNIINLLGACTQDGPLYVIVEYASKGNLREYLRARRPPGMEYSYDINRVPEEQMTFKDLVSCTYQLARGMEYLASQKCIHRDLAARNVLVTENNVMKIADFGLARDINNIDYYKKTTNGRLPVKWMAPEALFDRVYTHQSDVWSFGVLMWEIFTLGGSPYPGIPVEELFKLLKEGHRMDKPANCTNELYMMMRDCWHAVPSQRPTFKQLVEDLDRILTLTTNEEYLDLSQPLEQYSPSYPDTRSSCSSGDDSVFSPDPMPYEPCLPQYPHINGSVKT
A further test deals with Aurora kinase B (Homo sapiens, UniProt Q96GD4). Nature of the test: Selectivity interaction (KinomeScan (DiscoverX)) EUB0000595a AURKB. The settings on record: at 10 µM.
Sequence of Aurora kinase B (Q96GD4 whole entry): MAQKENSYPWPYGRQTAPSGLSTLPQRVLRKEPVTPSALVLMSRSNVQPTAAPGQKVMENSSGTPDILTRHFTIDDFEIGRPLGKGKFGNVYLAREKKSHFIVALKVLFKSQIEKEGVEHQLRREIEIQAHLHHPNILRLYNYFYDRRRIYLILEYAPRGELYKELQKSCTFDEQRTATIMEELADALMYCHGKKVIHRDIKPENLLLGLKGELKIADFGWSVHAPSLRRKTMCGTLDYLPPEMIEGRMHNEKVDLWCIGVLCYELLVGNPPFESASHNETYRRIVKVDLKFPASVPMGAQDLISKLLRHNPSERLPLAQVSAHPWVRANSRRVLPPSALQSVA
The target of test [10] is Platelet-derived growth factor receptor beta (Homo sapiens, UniProt P09619). Put plainly: Selectivity interaction (KinomeScan (DiscoverX)) EUB0000595a PDGFRB. The conditions noted are these: at 10 µM.
Sequence of Platelet-derived growth factor receptor beta (P09619 whole entry): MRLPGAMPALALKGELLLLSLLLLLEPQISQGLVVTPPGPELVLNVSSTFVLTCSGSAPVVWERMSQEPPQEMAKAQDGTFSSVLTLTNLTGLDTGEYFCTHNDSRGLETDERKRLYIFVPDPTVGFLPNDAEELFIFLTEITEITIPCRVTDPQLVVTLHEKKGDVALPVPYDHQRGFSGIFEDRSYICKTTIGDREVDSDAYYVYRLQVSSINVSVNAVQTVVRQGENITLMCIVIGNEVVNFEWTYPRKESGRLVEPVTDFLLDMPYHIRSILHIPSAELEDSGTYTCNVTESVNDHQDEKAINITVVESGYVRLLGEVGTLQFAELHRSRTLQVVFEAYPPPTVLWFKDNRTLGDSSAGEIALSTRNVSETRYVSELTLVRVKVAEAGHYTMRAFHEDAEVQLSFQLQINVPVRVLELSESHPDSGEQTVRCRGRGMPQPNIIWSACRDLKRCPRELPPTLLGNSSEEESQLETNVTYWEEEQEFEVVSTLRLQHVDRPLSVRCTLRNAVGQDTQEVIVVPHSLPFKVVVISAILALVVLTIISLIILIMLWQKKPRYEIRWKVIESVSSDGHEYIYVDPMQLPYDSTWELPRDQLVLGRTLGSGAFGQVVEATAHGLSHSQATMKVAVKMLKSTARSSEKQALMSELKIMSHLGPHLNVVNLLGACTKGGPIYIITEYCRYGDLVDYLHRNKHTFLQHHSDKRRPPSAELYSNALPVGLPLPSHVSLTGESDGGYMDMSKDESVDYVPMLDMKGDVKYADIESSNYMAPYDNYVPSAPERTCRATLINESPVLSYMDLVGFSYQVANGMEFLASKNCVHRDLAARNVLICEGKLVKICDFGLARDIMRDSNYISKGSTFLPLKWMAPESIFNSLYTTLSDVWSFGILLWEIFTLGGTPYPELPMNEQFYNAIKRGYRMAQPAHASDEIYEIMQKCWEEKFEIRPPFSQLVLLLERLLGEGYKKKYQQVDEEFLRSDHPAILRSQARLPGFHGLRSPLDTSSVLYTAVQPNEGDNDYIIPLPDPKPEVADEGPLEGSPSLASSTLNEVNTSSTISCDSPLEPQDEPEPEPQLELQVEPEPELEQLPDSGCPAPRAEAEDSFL

Bounds are passed on as bounds.

Sequence of Casein kinase II subunit alpha' (Homo sapiens) (P19784 whole entry, looked up): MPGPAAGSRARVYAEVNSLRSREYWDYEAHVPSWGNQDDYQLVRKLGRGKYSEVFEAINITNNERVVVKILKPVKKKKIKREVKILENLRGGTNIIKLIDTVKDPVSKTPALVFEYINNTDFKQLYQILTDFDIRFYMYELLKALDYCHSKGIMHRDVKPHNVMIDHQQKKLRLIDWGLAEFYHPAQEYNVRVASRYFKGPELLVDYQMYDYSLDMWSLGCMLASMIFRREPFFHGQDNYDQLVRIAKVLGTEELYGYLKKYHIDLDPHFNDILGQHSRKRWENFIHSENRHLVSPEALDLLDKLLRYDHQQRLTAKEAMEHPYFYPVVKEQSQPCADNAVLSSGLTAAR

On to `CCn1c(-c2nc3cc(C(=O)N4CCCC(N)C4)ccc3n2C)cc2ccccc21` (stereo unspecified), for which the pXC50 in test [1] was less than 4.5 M.

In the case of `COc1cc(Nc2nc(C)cc(-c3cnn4nc(OC)ccc34)n2)cc(C(F)(F)F)c1`, the % of control in test [2] worked out at 99%. In turn, `CN(C)CCOc1ccc(-c2nc(-c3ccncc3)c(-c3ccc4c(c3)CC/C4=N\O)[nH]2)cc1` came in with a % of control in test [3] of 74%.

For `CN(C)CC#Cc1ccc2[nH]c3c(c2c1)-c1nc(N)ncc1CCC3`, the IC50 (in general, the concentration that gives 50% inhibition) in test [4] is 440 nM. In [5], `CC(=O)c1cc(-c2ccccc2OCC2CC2)c2ncccn12` returned a % of control of 83%. With `O=C(NOC[C@H](O)CO)c1ccc(F)c(F)c1Nc1ccc(I)cc1F`, the % of control in [6] was 100%. Consider `Cn1cc(-n2cnc3c(NCc4nc5cc(Cl)c(Cl)cc5[nH]4)nc(N4CCOCC4)nc32)cn1`, for which the % of control in [7] was 30.2%.

As for `COc1cc(N(C)c2ccnc3ccc(C(F)(F)F)cc23)cc(OC)c1OC`, the % binding in test [8] came to 77%. For the compound `CN(C(=O)c1cnn2cccnc12)c1cc2c(cc1N1CCOCC1)C(=O)N(C[C@@H](F)C(C)(C)O)C2`, in test [9], the dTM turned out to be 0.3 K. In the case of `COCC(=O)NC/C=C/c1ccc2ncnc(Nc3ccc(Oc4ccc(C)nc4)c(C)c3)c2c1` [CP-724714], the % of control at Aurora kinase B was 100%; in [10], 46%.
